From ChEMBL document CHEMBL1133519, “Novel design of nonpeptide AVP V(2) receptor agonists: structural requirements for an agonist having 1-(4-aminobenzoyl)-2,3,4, 5-tetrahydro-1H-1-benzazepine as a template” (J Med Chem, 2000) come the findings set out here.

SMILES strings stand for the structures.

Vasopressin V1a receptor (Homo sapiens, UniProt P37288), sequence (P37288 whole entry): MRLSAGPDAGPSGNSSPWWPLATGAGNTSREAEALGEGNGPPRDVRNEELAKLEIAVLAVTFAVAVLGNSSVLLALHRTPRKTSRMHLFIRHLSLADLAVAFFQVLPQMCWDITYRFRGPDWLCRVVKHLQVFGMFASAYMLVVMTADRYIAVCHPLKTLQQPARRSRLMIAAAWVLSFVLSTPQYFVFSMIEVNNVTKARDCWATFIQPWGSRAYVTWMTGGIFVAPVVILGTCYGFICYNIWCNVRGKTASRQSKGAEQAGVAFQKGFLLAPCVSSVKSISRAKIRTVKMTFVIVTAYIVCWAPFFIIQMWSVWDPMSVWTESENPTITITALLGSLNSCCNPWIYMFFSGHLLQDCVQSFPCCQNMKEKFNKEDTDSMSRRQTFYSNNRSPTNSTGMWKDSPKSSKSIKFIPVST

In the first test the target is Vasopressin V1a receptor (Rattus norvegicus, UniProt P30560). Put plainly: Binding affinity towards rat Vasopressin V1a receptor […].
Vasopressin V1a receptor (Rattus norvegicus, UniProt P30560), sequence (P30560 whole entry): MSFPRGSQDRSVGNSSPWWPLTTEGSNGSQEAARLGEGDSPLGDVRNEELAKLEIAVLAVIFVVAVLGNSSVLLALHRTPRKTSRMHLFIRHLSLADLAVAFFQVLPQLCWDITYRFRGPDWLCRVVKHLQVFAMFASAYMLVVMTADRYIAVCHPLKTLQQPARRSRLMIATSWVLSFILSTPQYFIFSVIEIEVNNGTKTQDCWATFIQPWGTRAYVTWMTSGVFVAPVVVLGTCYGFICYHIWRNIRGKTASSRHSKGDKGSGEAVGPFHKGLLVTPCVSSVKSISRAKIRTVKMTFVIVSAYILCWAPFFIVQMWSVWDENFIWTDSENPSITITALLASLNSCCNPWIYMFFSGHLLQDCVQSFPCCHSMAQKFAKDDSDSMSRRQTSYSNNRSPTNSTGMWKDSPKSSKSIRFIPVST
`Cc1ccccc1OCC(=O)Nc1ccc(C(=O)N2CCCCc3cc(Cl)ccc32)c(C)c1` gave an IC50 of 5100 nM.

The target of the next test is T1, Vasopressin V2 receptor (Homo sapiens, UniProt P30518). Put plainly: Inhibition of [3H]AVP binding to human Vasopressin V2 receptor expressed in HeLa cells. The test is classed as cell-based.
T1 sequence (P30518 whole entry): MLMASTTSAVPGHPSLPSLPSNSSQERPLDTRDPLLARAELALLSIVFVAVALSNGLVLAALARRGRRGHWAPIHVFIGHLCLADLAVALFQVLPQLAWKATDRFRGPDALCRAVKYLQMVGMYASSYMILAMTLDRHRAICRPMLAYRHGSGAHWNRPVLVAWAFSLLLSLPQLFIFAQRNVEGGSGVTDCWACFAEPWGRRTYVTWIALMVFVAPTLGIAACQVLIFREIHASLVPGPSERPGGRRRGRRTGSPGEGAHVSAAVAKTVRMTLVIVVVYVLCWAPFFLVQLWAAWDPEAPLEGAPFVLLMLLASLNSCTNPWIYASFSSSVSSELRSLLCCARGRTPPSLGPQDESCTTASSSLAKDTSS
`C=CCNc1ccc(C(=O)N2CCCCc3ccccc32)c(Cl)c1` came in with an IC50 of 5.9 nM.

Take `CCNc1ccc(C(=O)N2CCCCc3ccccc32)c(Cl)c1`: the IC50 was found to be 34 nM.

`Cc1ccn(-c2ccc(C(=O)N3CCCCc4ccccc43)c(Cl)c2)n1` had an IC50 of 13 nM.

For `CCCCNc1ccc(C(=O)N2CCCCc3ccccc32)c(Cl)c1`, the IC50 was 22 nM.

The compound `Nc1ccc(C(=O)N2CCCCc3ccccc32)cc1` had a half-inhibitory concentration (IC50) of 180 nM.

`Cc1cc(N)ccc1C(=O)N1CCCCc2cc(Cl)ccc21` registered an IC50 of 4.1 nM.

`CCN(CC)c1ccc(C(=O)N2CCCCc3ccccc32)c(Cl)c1` gave an IC50 of 19 nM.

`CCCCCNc1ccc(C(=O)N2CCCCc3ccccc32)c(Cl)c1`: the IC50 stood at 31 nM.

Compound `O=C(c1ccc(-n2cccc2)cc1)N1CCCCc2ccccc21` had an IC50 of 320 nM.

`CCNc1ccc(C(=O)N2CCCCc3cc(Cl)ccc32)c(Cl)c1` displayed an IC50 of 5 nM.

The compound `CNc1ccc(C(=O)N2CCCCc3ccccc32)c(Cl)c1` registered an IC50 of 35 nM.

On to `O=C(c1ccc(-n2cccc2)cc1Cl)N1CCCCc2ccccc21`, for which the IC50 stood at 7.5 nM.

Regarding `O=C(c1ccc(N2CCCC2)cc1)N1CCCCc2ccccc21`, the IC50 stood at 1000 nM.

Consider `O=C(c1ccc(N2CCCC2)cc1)N1CCCCc2cc(Cl)ccc21`, for which the IC50 came to 210 nM.

In turn, `CC1CCN(c2ccc(C(=O)N3CCCCc4ccccc43)c(Cl)c2)C1` (stereo not drawn) displayed an IC50 of 51 nM.

Compound `O=C(c1ccc(N2CCCC2)cc1Cl)N1CCCCc2ccccc21` yielded an IC50 of 9 nM.

`CN(C)c1ccc(C(=O)N2CCCCc3cc(Cl)ccc32)c(Cl)c1` registered an IC50 of 13 nM.

Compound `O=C(c1ccc(N2CCCCC2)cc1Cl)N1CCCCc2ccccc21` had an IC50 of 120 nM.

Consider `O=C(c1ccc(-n2cccn2)cc1Cl)N1CCCCc2ccccc21`, for which the IC50 came to 8.8 nM.

With `CCCNc1ccc(C(=O)N2CCCCc3ccccc32)c(Cl)c1`, the IC50 worked out at 18 nM.

The compound `O=C(c1ccc(N2CCCC2)cc1Cl)N1CCCCc2cc(Cl)ccc21` came in with an IC50 of 16 nM.

As for `CN(C)c1ccc(C(=O)N2CCCCc3ccccc32)c(Cl)c1`, the IC50 turned out to be 18 nM.

Target in a further test: not listed separately
Put plainly: Binding affinity towards AVP receptor.
Consider `Cc1ccccc1C(=O)Nc1ccc(C(=O)N2CCCC(O)c3cc(Cl)ccc32)c(C)c1` (stereo not drawn) [TOLVAPTAN], for which the affinity, expressed as Ki, was 0.79 nM.

The target of another test is T2, Vasopressin V2 receptor (Rattus norvegicus, UniProt Q00788). Put plainly: Binding affinity towards rat Vasopressin V2 receptor in vitro.
T2 sequence (Q00788 whole entry): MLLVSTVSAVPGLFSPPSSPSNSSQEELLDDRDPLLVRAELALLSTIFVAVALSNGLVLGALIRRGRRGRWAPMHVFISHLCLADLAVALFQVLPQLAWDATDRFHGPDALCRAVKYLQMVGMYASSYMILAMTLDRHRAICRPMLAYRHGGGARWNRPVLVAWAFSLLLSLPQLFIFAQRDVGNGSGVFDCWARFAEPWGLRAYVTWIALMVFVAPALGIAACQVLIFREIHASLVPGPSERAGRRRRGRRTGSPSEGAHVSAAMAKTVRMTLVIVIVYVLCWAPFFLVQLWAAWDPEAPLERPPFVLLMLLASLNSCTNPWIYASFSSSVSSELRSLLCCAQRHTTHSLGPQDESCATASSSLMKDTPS
Take `Cc1ccccc1OCC(=O)Nc1ccc(C(=O)N2CCCCc3cc(Cl)ccc32)c(C)c1`: the IC50 was 38 nM.

Another test deals with T1, Vasopressin V2 receptor. Briefly: Concentration which inhibit [3H]AVP binding to human Vasopressin V2 receptor coded HeLa cells by 50%. The test is classed as cell-based.
`Cc1ccccc1OCC(=O)Nc1ccc(C(=O)N2CCCCc3cc(Cl)ccc32)c(C)c1` displayed an IC50 of 0.95 nM.

A further test concerns the target Vasopressin V1a receptor (Homo sapiens, UniProt P37288). Put plainly: Binding affinity towards Vasopressin V1a receptor in human liver.
The compound `CC(=O)NCCCOc1ccc(C(=O)N2CCC(N3C(=O)CCc4ccccc43)CC2)cc1` displayed a Ki of 14000 nM.

The target of a further test is T2, Vasopressin V2 receptor. Put plainly: Binding affinity towards rat Vasopressin V2 receptor.
For `O=C(c1ccc(N2CCCC2)cc1Cl)N1CCCCc2ccccc21`, the IC50 amounted to 150 nM.

By IC50 is commonly meant the concentration that gives 50% inhibition. Low readings indicate inhibition by little substance, high ones a need for much substance. As usually defined, the Ki is a dissociation constant, usually derived from enzyme kinetics or from competition with a known ligand.
